Here are results for four molecules from ChEMBL document CHEMBL1135192, “Translocation of the 5-alkoxy substituent of 2,5-dialkoxyarylalkylamines to the 6-position: effects on 5-HT(2A/2C) receptor affinity” (Bioorg Med Chem Lett, 2002).

The target in assay [1] is T1, 5-hydroxytryptamine receptor 2C (Rattus norvegicus, UniProt P08909).
T1 sequence (P08909 whole entry): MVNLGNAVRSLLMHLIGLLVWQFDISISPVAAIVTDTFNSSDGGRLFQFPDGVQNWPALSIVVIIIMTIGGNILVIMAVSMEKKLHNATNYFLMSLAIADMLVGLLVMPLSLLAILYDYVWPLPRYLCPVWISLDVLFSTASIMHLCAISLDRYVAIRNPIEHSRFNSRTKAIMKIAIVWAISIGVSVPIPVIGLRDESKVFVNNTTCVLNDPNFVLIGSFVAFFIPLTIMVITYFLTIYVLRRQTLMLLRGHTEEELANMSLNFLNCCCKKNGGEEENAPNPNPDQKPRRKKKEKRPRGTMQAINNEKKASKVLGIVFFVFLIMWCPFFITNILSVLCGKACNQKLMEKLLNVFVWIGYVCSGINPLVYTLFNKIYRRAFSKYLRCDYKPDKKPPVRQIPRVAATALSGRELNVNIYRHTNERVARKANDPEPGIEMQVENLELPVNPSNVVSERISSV
Kind of assay: Compound was evaluated for its ability to displace (+/-)[125I]-DOI from 5-hydroxytryptamine 2C receptor in cloned rat cell culture.

Assay [2] deals with T2, 5-hydroxytryptamine receptor 2A (Rattus norvegicus, UniProt P14842). Kind of assay: Compound was evaluated for its ability to displace (+/-)[125I]-DOI from 5-hydroxytryptamine 2A receptor in cloned rat cell culture.
For assay [3], the target named is T2, 5-hydroxytryptamine receptor 2A. Kind of assay: biochemical.
Description: Compound was evaluated for its ability to displace [125I](R)-DOI from 5-hydroxytryptamine 2A receptor in cloned rat prefrontal cortex homogenate
The species named for the next assay is Rattus norvegicus. Kind of assay: Drug discrimination in LSD-trained rats. In kind it is functional.

T2 sequence (P14842 whole entry): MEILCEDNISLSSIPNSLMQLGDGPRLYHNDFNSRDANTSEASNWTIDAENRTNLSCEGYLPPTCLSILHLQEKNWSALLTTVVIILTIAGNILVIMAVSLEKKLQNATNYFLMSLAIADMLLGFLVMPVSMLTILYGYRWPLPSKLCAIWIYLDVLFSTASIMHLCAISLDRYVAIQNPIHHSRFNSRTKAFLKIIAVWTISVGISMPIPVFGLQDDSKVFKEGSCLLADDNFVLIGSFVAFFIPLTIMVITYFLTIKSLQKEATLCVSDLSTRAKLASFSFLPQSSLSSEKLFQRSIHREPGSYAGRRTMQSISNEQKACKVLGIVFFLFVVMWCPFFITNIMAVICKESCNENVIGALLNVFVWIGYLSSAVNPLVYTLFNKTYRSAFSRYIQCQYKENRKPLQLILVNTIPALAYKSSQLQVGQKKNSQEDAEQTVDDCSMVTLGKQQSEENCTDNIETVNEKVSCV

Consider `Cc1c2c(c(CC(C)N)c3c1CCO3)OCC2` (stereo not drawn), for which the values for the Ki in assay [1] and in assay [2] were 7.5 nM and 6.3 nM, respectively.

With `Cc1c2ccoc2c(CC(C)N)c2occc12` (stereo not drawn), the inhibition constant Ki came to 0.9 nM in assay [1] and 1.8 nM in assay [2].

Regarding `COc1cc(C)cc(OC)c1CC(C)N` (stereo not drawn), the values for the Ki in assay [1] and in assay [2] were 50 nM and 49 nM, respectively.

The molecule `COc1cc(CC(C)N)c(OC)cc1C` (stereo not drawn) [DOM] came in with a Ki in assay [3] of 19 nM. In the assay listed under Rattus norvegicus, this molecule displayed a 50% effective dose (ED50) of 0.89 µmol/kg.

Usually Ki stands for the equilibrium dissociation constant of an inhibitor or competing ligand from its target. Read a low Ki as tighter binding. Broadly, the ED50 is the midpoint of the dose-response relation. A lower ED50 goes with an effect at a small dose.
